In US11192850B2, “N-aryl oxamic acids” (Purdue Research Foundation, priority 2020, dated 2021):
Where two headings read alike, the source gives them in different places.

Experiments:
mPTPB = mPTPB (Mycobacterium tuberculosis (strain ATCC 25618 / H37Rv), UniProt I6WXK4); type: biochemical
PTPγ = PTPγ (Homo sapiens (Human), UniProt P23470); test: pNPP inhibition assay against PTPγ; type: biochemical; details: pNPP at Km of the PTP
TC-PTP = TC-PTP (Homo sapiens (Human), UniProt P17706); test: pNPP inhibition assay against TC-PTP; type: biochemical; details: pNPP at Km of the PTP
PTP-PEST = PTP-PEST (Homo sapiens (Human), UniProt Q05209); test: pNPP inhibition assay against PTP-PEST; type: biochemical; details: pNPP at Km of the PTP
mPTPA = mPTPA (Mycobacterium tuberculosis (strain ATCC 25618 / H37Rv), UniProt P9WIA1); test: biochemical
SHP2 = SHP2 (Homo sapiens (Human), UniProt Q06124); test: pNPP inhibition assay against SHP2; type: biochemical
LMPTP-1 = LMPTP-1 (Homo sapiens (Human), UniProt P24666); type: biochemical
SHP1 = SHP1 (Homo sapiens (Human), UniProt P29350); test: pNPP inhibition assay against SHP1; type: biochemical
PTP1B = PTP1B (Homo sapiens (Human), UniProt P18031); test: pNPP inhibition assay against PTP1B; type: biochemical
LYP = LYP (Homo sapiens (Human), UniProt Q9Y2R2); test: pNPP inhibition assay against LYP; type: biochemical; details: pNPP at Km of the PTP
MKP5 = MKP5 (Homo sapiens (Human), UniProt Q9Y6W6); test: pNPP inhibition assay against MKP5; type: biochemical; details: pNPP at Km of the PTP
[1] = Mouse liver microsomal stability; type: in vitro ADME; details: for Microsome Stability, % remaining: Mouse, after 60 min at 37° C.
Source text: A sufficient oral dosage must survive first-pass clearance through the liver before reaching its biological target. The majority of drugs/xenobiotics undergo phase I metabolism, mediated by the cytochrome P450 (CYP450) family of heme-thiolate proteins predominantly in the liver. Although mouse liver microsomal (MLM) stability studies are not a perfect substitute for in vivo metabolic clearance studies, but they serve as an initial […] model system that can correlate well with human liver microsomal (HLM) stability and in vivo activity in mice. To this end, compounds 4h, 4k, 4t, 4u, and 4v were allowed to react with mouse liver microsomes and the fraction of remaining parent compound over time was determined. […] Incorporation of fluorine into drug candidates generally improves their potency, bioavailability, and metabolic stability. In addition, fluorinated molecules are in general, nontoxic and mimic the corresponding nonfluorinated analogs in their stereoelectronic properties, so the drug's affinity for the receptor either remains the same or, in some cases increases. […] So, the loss of compounds tested here is attributed only to oxidative Phase I metabolism. The high microsomal stability of these compounds could be exploited pharmacologically.
Mouse (CD-1) pooled liver microsomes purchased from Fisher Scientific, IL, USA (0.5 mg/mL, Corning Gentest 3P, cat#452702), and the assay procedures were followed as previously reported. A solution of mouse liver microsomes and 1 mM of co-factor NADPH in 1 ml of phosphate buffer saline (pH=7.4) was prewarmed to 37° C. in an Eppendorf tube. Then 10 μL of a test solution (10 mM DMSO stock) was added to initiate the reaction. Verapamil-HCl was used as a positive control. […] The incubation mixture was kept at 37° C., and 50 μL aliquots were taken at times of 0, 5, 10, 15, 30 or 60 min. Each of the aliquot was quenched using 200 μL of ice-cold acetonitrile. The mixtures were vigorously vortexed and centrifuged to remove the precipitated protein and the supernatants were analyzed by an Agilent Technologies 6470 series, triple quadrupole LC/MS spectrometer to quantitate the remaining parent compound. The percent of the parent compound remaining was calculated from the formula: % parent compound remaining=(concentration at 60 min/concentration at 0 min)*100

PTPβ = PTPβ (Homo sapiens (Human), UniProt P23467); test: biochemical; details: pNPP at Km of the PTP
CD45 = CD45 (Homo sapiens (Human), UniProt P08575); test: pNPP inhibition assay against CD45; type: biochemical; details: pNPP at Km of the PTP
CDC14A = CDC14A (Homo sapiens (Human), UniProt Q9UNH5); test: pNPP inhibition assay against CDC14A; type: biochemical; details: pNPP at Km of the PTP
STEP = STEP (Homo sapiens (Human), UniProt P54829); test: pNPP inhibition assay against STEP; type: biochemical; details: pNPP at Km of the PTP
VHR = VHR (Homo sapiens (Human), UniProt P51452); test: pNPP inhibition assay against VHR; type: biochemical; details: pNPP at Km of the PTP
DEP-1 = DEP-1 (Homo sapiens (Human), UniProt Q12913); test: pNPP inhibition assay against DEP-1; type: biochemical; details: pNPP at Km of the PTP
HePTP = HePTP (Homo sapiens (Human), UniProt P35236); test: pNPP inhibition assay against HePTP; type: biochemical; details: pNPP at Km of the PTP
Laforin = Laforin (Homo sapiens (Human), UniProt O95278); test: pNPP inhibition assay against Laforin; type: biochemical; details: pNPP at Km of the PTP
MKP3 = MKP3 (Homo sapiens (Human), UniProt Q16828); test: pNPP inhibition assay against MKP3; type: biochemical; details: pNPP at Km of the PTP
PTPα = PTPα (Homo sapiens (Human), UniProt P18433); test: pNPP inhibition assay against PTPα; type: biochemical; details: pNPP at Km of the PTP
PTPμ = PTPμ (Homo sapiens (Human), UniProt P28827); test: pNPP inhibition assay against PTPμ; type: biochemical; details: pNPP at Km of the PTP
[2] = Kinetic solubility in pH 7.4 PBS; type: physicochemical; details: pH 7.4 PBS buffer
Description: The resulting mixture was stirred at 500 rpm for 90 minutes and then filtered using 0.45 μm PVDF membrane filter. After filtration, the concentration of corresponding compound was determined by HPLC, comparing the AUC obtained with that from a standard solution of the compound. Data represent the mean (t standard deviation, SD) of three separate experiments, performed in triplicate.

PTP-MEG2 = PTP-MEG2 (Homo sapiens (Human), UniProt P43378); test: pNPP inhibition assay against PTP-MEG2; type: biochemical; details: pNPP at Km of the PTP
[3] = Log D by shake flask method; type: physicochemical; details: n-octanol and pH 7.4 PBS
Description: To determine the lipophilicity of our inhibitors, the Log D at pH 7.4 was measured using the shake flask method. […] The tubes were shaken for 8 hours, centrifuged at 10000 rpm for 5 minutes then n-octanol and phosphate buffered saline layers separated. […] The ratios of AUC of the peaks were used to calculate the Log D in accordance with the equation: Log D=Log10(AUC of octanol layer/AUC of phosphate buffered saline layer)

FAP-1 = FAP-1 (Homo sapiens (Human), UniProt Q12923); test: pNPP inhibition assay against FAP-1; type: biochemical; details: pNPP at Km of the PTP
[4] = Solubility observed for analogs (qualitative)

Sequence of LYP (Q9Y2R2 24-289, species assumed): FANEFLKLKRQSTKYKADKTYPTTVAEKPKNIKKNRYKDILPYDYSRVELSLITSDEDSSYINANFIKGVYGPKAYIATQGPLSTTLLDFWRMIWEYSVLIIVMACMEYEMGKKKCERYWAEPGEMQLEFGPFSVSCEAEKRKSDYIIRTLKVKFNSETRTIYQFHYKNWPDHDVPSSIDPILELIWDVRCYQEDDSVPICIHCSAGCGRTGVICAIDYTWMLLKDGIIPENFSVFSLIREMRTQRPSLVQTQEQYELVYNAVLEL
Sequence of PTP-PEST (Q05209 28-293, species assumed): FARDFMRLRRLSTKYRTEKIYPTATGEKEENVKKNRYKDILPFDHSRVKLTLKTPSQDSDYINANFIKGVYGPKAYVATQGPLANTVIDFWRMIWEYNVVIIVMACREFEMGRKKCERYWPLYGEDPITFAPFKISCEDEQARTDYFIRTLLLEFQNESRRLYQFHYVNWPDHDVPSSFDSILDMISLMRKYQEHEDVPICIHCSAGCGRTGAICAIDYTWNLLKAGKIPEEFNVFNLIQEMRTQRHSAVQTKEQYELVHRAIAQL
Sequence of SHP2 (Q06124 247-517): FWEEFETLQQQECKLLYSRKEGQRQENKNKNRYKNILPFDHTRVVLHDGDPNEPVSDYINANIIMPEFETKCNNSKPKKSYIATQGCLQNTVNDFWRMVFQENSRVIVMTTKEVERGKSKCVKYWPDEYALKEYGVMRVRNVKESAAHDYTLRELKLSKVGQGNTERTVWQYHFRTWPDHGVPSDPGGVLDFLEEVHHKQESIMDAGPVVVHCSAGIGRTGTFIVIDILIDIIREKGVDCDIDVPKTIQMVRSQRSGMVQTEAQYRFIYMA
Sequence of PTP1B (P18031 3-277): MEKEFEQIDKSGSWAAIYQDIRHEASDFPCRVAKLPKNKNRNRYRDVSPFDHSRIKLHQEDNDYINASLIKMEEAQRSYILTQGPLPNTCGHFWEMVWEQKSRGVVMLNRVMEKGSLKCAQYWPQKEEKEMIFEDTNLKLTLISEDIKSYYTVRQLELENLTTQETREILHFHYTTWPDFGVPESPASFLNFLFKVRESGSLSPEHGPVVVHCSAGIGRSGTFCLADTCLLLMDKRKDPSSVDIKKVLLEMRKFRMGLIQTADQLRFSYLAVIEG
Sequence of SHP1 (P29350 244-515): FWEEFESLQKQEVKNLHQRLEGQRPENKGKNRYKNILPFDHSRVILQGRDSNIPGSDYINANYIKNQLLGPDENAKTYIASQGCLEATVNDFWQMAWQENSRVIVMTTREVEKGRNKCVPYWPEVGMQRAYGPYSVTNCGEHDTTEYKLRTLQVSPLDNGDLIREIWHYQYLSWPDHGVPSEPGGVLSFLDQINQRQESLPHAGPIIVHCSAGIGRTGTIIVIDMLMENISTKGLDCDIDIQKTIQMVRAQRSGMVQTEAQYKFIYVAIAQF
Sequence of TC-PTP (P17706 5-275): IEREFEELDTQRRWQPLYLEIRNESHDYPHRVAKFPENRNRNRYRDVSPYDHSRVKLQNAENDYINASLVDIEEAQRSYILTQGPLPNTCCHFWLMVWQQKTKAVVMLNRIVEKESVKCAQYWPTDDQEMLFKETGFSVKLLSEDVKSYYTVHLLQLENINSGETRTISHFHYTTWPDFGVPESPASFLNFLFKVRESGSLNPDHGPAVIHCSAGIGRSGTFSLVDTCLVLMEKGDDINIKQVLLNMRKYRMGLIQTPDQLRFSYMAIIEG
Sequence of PTPγ (P23470 763-1445): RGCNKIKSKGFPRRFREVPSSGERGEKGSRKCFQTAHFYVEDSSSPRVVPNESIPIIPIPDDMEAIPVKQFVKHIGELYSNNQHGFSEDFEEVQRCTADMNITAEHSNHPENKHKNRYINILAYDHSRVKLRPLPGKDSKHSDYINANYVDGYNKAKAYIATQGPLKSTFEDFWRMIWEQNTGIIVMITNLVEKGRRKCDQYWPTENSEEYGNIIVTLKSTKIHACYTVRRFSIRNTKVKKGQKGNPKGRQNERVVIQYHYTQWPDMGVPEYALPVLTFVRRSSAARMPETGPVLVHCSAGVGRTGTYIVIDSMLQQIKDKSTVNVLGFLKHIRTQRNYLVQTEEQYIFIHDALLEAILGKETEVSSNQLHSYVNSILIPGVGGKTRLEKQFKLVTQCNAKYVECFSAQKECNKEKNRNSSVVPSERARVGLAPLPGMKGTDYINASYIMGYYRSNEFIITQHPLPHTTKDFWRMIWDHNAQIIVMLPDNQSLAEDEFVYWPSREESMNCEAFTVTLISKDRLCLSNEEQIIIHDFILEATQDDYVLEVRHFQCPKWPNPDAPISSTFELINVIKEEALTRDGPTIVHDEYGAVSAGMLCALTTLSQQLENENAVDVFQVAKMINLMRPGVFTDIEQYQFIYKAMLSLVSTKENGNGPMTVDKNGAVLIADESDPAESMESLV
Sequence of MKP5 (Q9Y6W6 321-464, species assumed): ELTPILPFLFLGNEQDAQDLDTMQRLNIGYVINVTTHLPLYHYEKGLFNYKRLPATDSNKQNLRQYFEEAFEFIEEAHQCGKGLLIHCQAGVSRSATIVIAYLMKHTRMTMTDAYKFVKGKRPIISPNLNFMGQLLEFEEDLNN
Sequence of mPTPB (I6WXK4 whole entry, looked up): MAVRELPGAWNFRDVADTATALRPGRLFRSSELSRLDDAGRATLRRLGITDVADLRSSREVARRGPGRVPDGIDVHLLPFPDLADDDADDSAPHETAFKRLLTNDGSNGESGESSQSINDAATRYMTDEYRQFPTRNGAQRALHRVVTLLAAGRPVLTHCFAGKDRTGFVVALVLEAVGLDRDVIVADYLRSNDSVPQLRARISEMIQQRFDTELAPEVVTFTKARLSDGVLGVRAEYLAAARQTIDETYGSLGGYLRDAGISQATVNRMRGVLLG
Sequence of PTP-MEG2 (P43378 303-574): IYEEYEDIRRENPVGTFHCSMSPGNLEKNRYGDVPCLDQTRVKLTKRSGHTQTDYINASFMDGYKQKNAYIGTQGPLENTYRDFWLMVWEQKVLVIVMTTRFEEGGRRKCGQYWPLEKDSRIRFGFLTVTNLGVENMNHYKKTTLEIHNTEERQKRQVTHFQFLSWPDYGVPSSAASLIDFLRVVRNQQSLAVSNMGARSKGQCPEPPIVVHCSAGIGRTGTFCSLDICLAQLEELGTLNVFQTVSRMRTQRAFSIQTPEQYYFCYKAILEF
Sequence of PTPα (P18433 whole entry, looked up): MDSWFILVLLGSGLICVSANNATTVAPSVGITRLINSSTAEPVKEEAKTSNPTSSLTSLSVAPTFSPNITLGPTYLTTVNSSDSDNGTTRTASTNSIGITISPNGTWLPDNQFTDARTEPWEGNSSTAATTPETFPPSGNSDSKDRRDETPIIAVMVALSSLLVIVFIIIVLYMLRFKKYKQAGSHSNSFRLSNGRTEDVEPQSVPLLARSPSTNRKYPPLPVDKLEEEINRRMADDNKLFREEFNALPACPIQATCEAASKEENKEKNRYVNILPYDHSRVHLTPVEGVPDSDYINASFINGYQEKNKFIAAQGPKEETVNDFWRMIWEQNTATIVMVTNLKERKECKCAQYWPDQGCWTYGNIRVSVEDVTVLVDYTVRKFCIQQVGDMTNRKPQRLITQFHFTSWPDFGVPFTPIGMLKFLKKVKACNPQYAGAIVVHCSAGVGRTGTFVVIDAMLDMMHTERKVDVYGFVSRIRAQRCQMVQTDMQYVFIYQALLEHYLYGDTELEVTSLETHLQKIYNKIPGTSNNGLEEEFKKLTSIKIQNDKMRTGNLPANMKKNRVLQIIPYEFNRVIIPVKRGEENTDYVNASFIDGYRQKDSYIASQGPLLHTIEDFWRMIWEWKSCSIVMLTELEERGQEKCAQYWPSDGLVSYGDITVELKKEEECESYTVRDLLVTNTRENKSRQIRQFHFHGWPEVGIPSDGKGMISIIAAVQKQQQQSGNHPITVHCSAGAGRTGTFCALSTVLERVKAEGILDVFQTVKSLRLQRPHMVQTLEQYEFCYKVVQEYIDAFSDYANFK
Sequence of VHR (P51452 28-179, species assumed): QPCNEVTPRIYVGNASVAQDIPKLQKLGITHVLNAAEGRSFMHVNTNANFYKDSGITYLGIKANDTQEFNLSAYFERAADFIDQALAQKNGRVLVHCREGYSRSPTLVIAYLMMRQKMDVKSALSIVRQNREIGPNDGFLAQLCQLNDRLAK
Sequence of PTPβ (P23467 1703-1963): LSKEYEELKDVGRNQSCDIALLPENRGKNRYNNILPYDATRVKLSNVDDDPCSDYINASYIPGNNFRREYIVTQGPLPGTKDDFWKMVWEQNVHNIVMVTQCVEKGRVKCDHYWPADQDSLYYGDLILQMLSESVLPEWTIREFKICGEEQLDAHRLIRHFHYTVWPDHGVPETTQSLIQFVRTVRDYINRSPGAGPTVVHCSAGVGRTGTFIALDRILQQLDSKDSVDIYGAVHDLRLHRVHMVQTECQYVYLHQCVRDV
Sequence of LMPTP-1 (P24666 whole entry, looked up): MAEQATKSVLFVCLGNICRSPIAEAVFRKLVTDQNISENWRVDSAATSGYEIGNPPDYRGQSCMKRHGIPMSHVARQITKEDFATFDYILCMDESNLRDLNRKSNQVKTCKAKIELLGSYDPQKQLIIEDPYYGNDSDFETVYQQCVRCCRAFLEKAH
Sequence of FAP-1 (Q12923 2213-2467, species assumed): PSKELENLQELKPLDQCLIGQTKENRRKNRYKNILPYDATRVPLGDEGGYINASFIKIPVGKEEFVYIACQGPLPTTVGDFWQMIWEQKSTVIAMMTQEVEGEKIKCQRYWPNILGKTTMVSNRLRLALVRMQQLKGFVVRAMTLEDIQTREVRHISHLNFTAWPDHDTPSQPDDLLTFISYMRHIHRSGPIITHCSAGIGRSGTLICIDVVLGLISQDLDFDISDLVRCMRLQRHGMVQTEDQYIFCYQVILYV
Sequence of CDC14A (Q9UNH5 179-336, species assumed): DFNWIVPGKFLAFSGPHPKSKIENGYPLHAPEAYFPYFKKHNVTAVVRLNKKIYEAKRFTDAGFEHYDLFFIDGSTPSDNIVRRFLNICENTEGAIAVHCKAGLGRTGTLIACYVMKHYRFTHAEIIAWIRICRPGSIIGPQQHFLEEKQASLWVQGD

**Q.** With CN(C)c1cc(O)c(C(=O)O)cc1C#Cc1cccc(NC(=O)C(=O)O)c1 [Compound 4g, 5-((3-(carboxyformamido)phenyl)ethynyl)-4-(dimethylamino)-2-hydroxybenzoic Acid] as the compound, how does the IC50 (mPTPB) read?
**A.** 0.16 µM

**Q.** What about the IC50 (PTPγ) of the same compound?
**A.** > 50 µM

**Q.** And the IC50 (TC-PTP)?
**A.** > 50 µM

**Q.** And the IC50 (PTP-PEST)?
**A.** > 50 µM

**Q.** What about the IC50 (mPTPA) of the same compound?
**A.** > 50 µM

**Q.** What about the IC50 (SHP2) of the same compound?
**A.** 47.5 ± 3.5 µM

**Q.** And the IC50 (LMPTP-1)?
**A.** 34.5 µM

**Q.** And the IC50 (SHP1)?
**A.** 38.5 ± 4.2 µM

**Q.** And the IC50 (PTP1B)?
**A.** 45.1 ± 4.5 µM

**Q.** What about the IC50 (LYP) of the same compound?
**A.** > 50 µM

**Q.** What about the IC50 (MKP5) of the same compound?
**A.** > 50 µM

**Q.** Which results are given for CC(C)(C)c1ccc(C#Cc2ccc(NC(=O)C(=O)O)cc2)cc1 [Compound 4h, 2-((4-((4-(tert-butyl)phenyl)ethynyl)phenyl)amino)-2-oxoacetic Acid]?
**A.** IC50 (mPTPB; pNPP assay, pH 7.0, 3.0 mM pNPP): 0.026 ± 0.005 µM; IC50 (SHP2; pNPP at Km of the PTP): > 50 µM; IC50 (SHP1; pNPP at Km of the PTP): > 50 µM; IC50 (PTP1B; pNPP at Km of the PTP): > 50 µM; Microsome Stability, % remaining [1]: 27 ± 2.4%; microsomal stability ranking ([1]; mouse liver microsomes, last time point): least stable

**Q.** With O=C(O)C(=O)Nc1ccc(C#Cc2ccc(C(F)(F)F)cc2)cc1 [Compound 4k, 2-oxo-2-((4-((4-(trifluoromethyl)phenyl)ethynyl)phenyl)amino)acetic Acid] as the compound, how does the IC50 (PTPγ) read?
**A.** > 30 µM

**Q.** And the IC50 (PTPβ)?
**A.** > 30 µM

**Q.** What about the IC50 (CD45) of the same compound?
**A.** > 30 µM

**Q.** What about the IC50 (CDC14A) of the same compound?
**A.** > 30 µM

**Q.** And the IC50 (TC-PTP)?
**A.** > 50 µM

**Q.** And the IC50 (PTP-PEST)?
**A.** > 30 µM

**Q.** What about the IC50 (STEP) of the same compound?
**A.** > 30 µM

**Q.** And the IC50 (VHR)?
**A.** > 30 µM

**Q.** And the IC50 (mPTPA)?
**A.** > 50 µM

**Q.** And the IC50 (DEP-1)?
**A.** > 30 µM

**Q.** What about the IC50 (HePTP) of the same compound?
**A.** > 50 µM

**Q.** What about the IC50 (SHP2; pNPP at Km of the PTP) of the same compound?
**A.** > 50 µM

**Q.** What about the IC50 (Laforin) of the same compound?
**A.** > 30 µM

**Q.** And the IC50 (SHP1; pNPP at Km of the PTP)?
**A.** > 50 µM

**Q.** What about the IC50 (MKP3) of the same compound?
**A.** > 30 µM

**Q.** And the IC50 (PTP1B; pNPP at Km of the PTP)?
**A.** > 50 µM

**Q.** And the IC50 (PTPα)?
**A.** > 30 µM

**Q.** What about the IC50 (PTPμ) of the same compound?
**A.** > 30 µM

**Q.** And the “Aq. Sol (μM), kinetic solubility” value [2]?
**A.** 22.4 µM

**Q.** What about the IC50 (PTP-MEG2) of the same compound?
**A.** > 30 µM

**Q.** What about the IC50 (LYP) of the same compound?
**A.** > 50 µM

**Q.** And the LogD [3]?
**A.** 1.97

**Q.** And the IC50 (FAP-1)?
**A.** > 30 µM

**Q.** And the IC50 (MKP5)?
**A.** > 30 µM

**Q.** And the “Microsome Stability, % remaining” value [1]?
**A.** 38 ± 1.6%

**Q.** With O=C(O)C(=O)Nc1ccc(C#Cc2ccc3ccccc3c2)cc1 [Compound 4q, 2-((4-(naphthalen-2-ylethynyl)phenyl)amino)-2-oxoacetic Acid] as the compound, how does the IC50 (SHP2; pNPP at Km of the PTP) read?
**A.** > 50 µM

**Q.** And the “solubility (in words)” value [4]?
**A.** poor solubility

**Q.** And the IC50 (SHP1; pNPP at Km of the PTP)?
**A.** > 50 µM

**Q.** What about the IC50 (PTP1B; pNPP at Km of the PTP) of the same compound?
**A.** > 50 µM

**Q.** Which IC50 (SHP2; pNPP at Km of the PTP) does the source give for O=C(O)C(=O)Nc1ccc(C#Cc2ccc(OCc3ccccc3)cc2)cc1 [Compound 4r, 2-((4-((4-(benzyloxy)phenyl)ethynyl)phenyl)amino)-2-oxoacetic Acid] here?
**A.** 15.3 ± 2.1 µM

**Q.** And the “solubility (in words)” value [4]?
**A.** poor solubility

**Q.** And the IC50 (SHP1; pNPP at Km of the PTP)?
**A.** 16.8 ± 3.3 µM

**Q.** And the IC50 (PTP1B; pNPP at Km of the PTP)?
**A.** 38.9 ± 5 µM

**Q.** Which results are given for O=C(O)C(=O)Nc1ccc(C#Cc2ccc(C(F)(F)F)cc2Cl)cc1 [Compound 4t, 2-((4-((2-chloro-4-(trifluoromethyl)phenyl)ethynyl)phenyl)amino)-2-oxoacetic Acid]?
**A.** IC50 (PTPγ): > 30 µM; IC50 (TC-PTP): > 30 µM; IC50 (PTP-PEST): > 30 µM; IC50 (mPTPA): > 30 µM; IC50 (SHP2; pNPP at Km of the PTP): > 30 µM; IC50 (SHP1; pNPP at Km of the PTP): > 30 µM; IC50 (PTP1B; pNPP at Km of the PTP): > 30 µM; IC50 (LYP): > 30 µM; IC50 (MKP5): > 30 µM; Microsome Stability, % remaining [1]: 56 ± 1.5%
